The record followed here is patent US12428394B2, “2,4-disubstituted pyrimidine derivative, preparation method therefor and use thereof” (CHENGDU ZENITAR BIOMEDICAL TECHNOLOGY CO., LTD., priority 2019, dated 2025).

One experiment addresses T1, FLT3 (Homo sapiens, UniProt P36888).
T1 construct: purchased Eurofins
T1 sequence (P36888 27-993): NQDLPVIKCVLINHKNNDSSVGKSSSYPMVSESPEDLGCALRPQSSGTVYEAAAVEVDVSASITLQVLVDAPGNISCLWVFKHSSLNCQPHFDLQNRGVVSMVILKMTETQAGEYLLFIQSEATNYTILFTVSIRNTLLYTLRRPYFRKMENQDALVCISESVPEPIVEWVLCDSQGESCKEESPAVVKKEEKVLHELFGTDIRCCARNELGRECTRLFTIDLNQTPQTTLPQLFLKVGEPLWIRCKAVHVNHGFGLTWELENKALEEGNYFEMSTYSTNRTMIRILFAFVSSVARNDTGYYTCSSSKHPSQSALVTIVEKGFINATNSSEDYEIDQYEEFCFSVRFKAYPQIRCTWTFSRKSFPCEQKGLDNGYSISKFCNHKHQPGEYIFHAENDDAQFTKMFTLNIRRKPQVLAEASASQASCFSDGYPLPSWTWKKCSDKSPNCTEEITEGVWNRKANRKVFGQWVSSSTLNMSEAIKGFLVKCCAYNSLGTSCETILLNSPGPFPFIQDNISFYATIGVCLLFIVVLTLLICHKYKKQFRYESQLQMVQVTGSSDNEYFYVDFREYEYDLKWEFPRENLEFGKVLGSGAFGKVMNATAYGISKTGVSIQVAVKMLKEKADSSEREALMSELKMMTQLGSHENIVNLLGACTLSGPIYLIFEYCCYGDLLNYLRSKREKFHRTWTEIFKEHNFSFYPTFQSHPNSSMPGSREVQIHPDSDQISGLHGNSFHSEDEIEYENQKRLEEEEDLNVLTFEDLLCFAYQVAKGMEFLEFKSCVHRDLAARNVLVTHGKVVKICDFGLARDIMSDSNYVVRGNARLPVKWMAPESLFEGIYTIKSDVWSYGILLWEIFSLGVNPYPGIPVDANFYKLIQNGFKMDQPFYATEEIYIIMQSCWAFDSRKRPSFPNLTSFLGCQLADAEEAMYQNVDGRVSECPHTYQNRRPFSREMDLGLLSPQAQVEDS
The experiment in a line: In vitro kinase activity experiment, FLT3. Format: biochemical. The procedure, abridged:
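Radiometric filter-binding kinase assay: each kinase with its substrate, γ33P-ATP, 10 mM magnesium acetate and graded compound in 8 mM MOPS pH 7.0, 0.2 mM EDTA, 10 mM MnCl2. MgATP-started, 40 min at room temperature, stopped with 3% phosphate. Spotted on Filtermat A, washed, scintillation-counted.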

The next experiment concerns SET-2 cells (JAK2 V617F). Kind of experiment: Inhibition of cell proliferation by MTT experiment, SET-2. Format: cell-based. As to conditions: Homo sapiens, SET-2, 72 h, read-out: IC50 value on cell proliferation inhibition, SET-2 (V617F). The procedure, abridged: (§1)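 MTT assay in MV4-11, MOLM-13 (FLT3-ITD) and SET-2 (JAK2 V617F) cells at 10,000–15,000 cells/well in IMDM with 10% FBS. Cells are exposed to compound for 72 h at 37 °C, then to MTT for 1–3 h. IC50 is fitted from inhibition rates across concentrations.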

The subject of experiment [1] is JAK2/FLT3 signaling pathway related proteins. The experiment in a line: Immunoblot experiment on JAK2/FLT3 signaling pathway related proteins in MV4-11 and SET-2 cells. As to conditions: different concentrations. The class given is cell-based. On the procedure: The cells were subjected to SDS-PAGE gel electrophoresis with 8%-16% gradient gels, and constant flow membrane was carried out. The cells were blocked with 5% skim milk, and the primary antibody FLT3 (CST, 3462S), […] (CST, 3464S), STAT5 (CST, 9363S), […] (Abcam, ab32364), JAK2 (Proteintech, 02802), p-JAK2 (Abcam, ab32101), JAK1 (Santa Cruz Biotechnology, sc-136225), […] (Santa Cruz Biotechnology, sc-101716), GAPDH (Abways, AB0037), Rb (Abways, CY5661), […] (Abways, CY5260) was incubated. The next day, the cells were washed with PBS/T for three times, horseradish enzyme-labeled goat anti-mouse second antibody (Abways, AB0102) and horseradish enzyme-labeled goat anti-rabbit second antibody (Abways, AB0101) were incubated at room temperature, then the cells were washed with PBS/T for three times, and developed by the addition of the ECL chemiluminescent substrate.
A general note: In western blotting, separated proteins are transferred to a membrane and probed.

Experiment [2] concerns MV4-11 cells (FLT3-ITD+/+). Kind of experiment: Inhibition of cell proliferation by MTT experiment, MV4-11. The class given is cell-based, human. As to conditions: Homo sapiens, MV4-11, 72 h, read-out: IC50 value on cell proliferation inhibition, MV4-11 FLT3-ITD+/+. The procedure, abridged: as §1

For `Cc1cnc(Nc2ccc(N3CCC(N(C)CCO)CC3)c(F)c2)nc1-c1cnn(C(C)C)c1` [CLJ-44, 5-methyl-N-(3-fluoro-4-(4-N-hydroxyethyl-4-N-methylaminopiperidine-1-yl)phenyl)-4-(1-isopropyl-1H-pyrazole-4-yl) pyrimidine-2-amine], the values for the IC50 (against FLT3; in the experiment on SET-2 cells (JAK2 V617F); in experiment [2]) were 4 nM, 10 to 100 nM and 1 to 10 nM, respectively. The inhibition at 0.5 µM on FLT3 (40 min, read-out: Kinase activity @ 500 nM (%) FLT3) stood at 99%. In addition, the “autophosphorylation of JAK2/FLT3 (immunoblot)” value in experiment [1] was “significantly inhibited the autophosphorylation of JAK2/FLT3 in a dose-dependent relationship”. Moreover, in experiment [1], the “effect on JAK subtype JAK1 (immunoblot)” value is “weak effect”.
